Data as given in US9051350B2, “Macrocyclic antiproliferation agents and methods of treatment” (University of Florida Research Foundation, Inc., priority 2008, dated 2015).
pIC50: −log10 of the molar value. *1 amine or outer side, *2 acyl side, *3 side chain or, on linkers, in order; H or OH if unused. Where a SMILES comes first, the peptide text is derived from it. [ ]: non-standard residue; d: D form. ξ: configuration not given here. dβ3hAla(2R-Me) = C[C@@H](N[*:1])[C@@H](C)C(=O)[*:2]; X1 = CN(C(Cc1ccccc1)C1=N[C@H](C(=O)[*:2])CS1)[*:1]; X2 = CC[C@@H](N[*:1])C1=NC(C(=O)[*:2])CS1; d(aThr) = C[C@@H](O)[C@@H](N)C(=O)O; dNMeL = CN[C@H](CC(C)C)C(=O)O; ξPhLac = O=C(O)C(O)Cc1ccccc1; NMeV = CN[C@H](C(=O)O)C(C)C

Experiments:
Experiment in all cases: Cell viability assay (MTT), antiproliferative activity
Format in all cases: cell-based
[1] = test system: cervical carcinoma (HeLa); conditions: Homo sapiens, HeLa cells, 48 hours of incubation
Description: (§1) Cell culture medium was purchased from Invitrogen and fetal bovine serum (FBS) from Hyclone. Cells were propagated and maintained in DMEM medium (high glucose) supplemented with 10% FBS at 37° C. humidified air and 5% CO2.
(§2) HT29 colon adenocarcinoma cells were used for the bioassay-guided fractionation. To determine cell type selectivity, cells from four cancer cell lines (U2OS, HeLa, HT29 and IMR-32) were plated in 96-well format and incubated at 37° C. (5% CO2) for 24 hours. A dilution series of 1 in DMSO (1 μL) was then added, and after further 48 hours of incubation the cell viability was quantified using a standard assay kit based on MTT dye according to the manufacturer's instructions (Promega).

[2] = test system: colorectal adenocarcinoma (HT29); conditions: Homo sapiens, HT-29, HT29 cells, 48 hours of incubation
Description: as §1, §2

[3] = test system: human osteosarcoma (U2OS); conditions: U2OS cells, 48 hours of incubation
Description: as §1, §2

neuroblastoma (IMR-32) = conditions: Homo sapiens, IMR-32 cells, 48 hours of incubation
Description: as §1, §2

`CC[C@H]1NC(=O)[C@@H]2CSC(=N2)C(Cc2ccccc2)N(C)C(=O)[C@@H]2CCCN2C(=O)[C@H](C(C)C)N(C)C(=O)C(Cc2ccccc2)OC(=O)[C@H](C)[C@@H](C)NC(=O)[C@@H]([C@@H](C)O)NC(=O)[C@@H](CC(C)C)N(C)C(=O)C2CSC1=N2` (stereo partly drawn) [Compound 1, grassypeptolide] (cyclo([NMeV]P[X1][X2][dNMeL][d(aThr)][dβ3hAla(2R-Me)][ξPhLac])) was tested, and the pIC50 [1] was 6.00, the pIC50 [2] was 5.82 and the pIC50 [3] was 5.66. The pIC50 (neuroblastoma (IMR-32)) was 5.38.
